Values of other authors in patent US6326360A, “Bubbling enteric coated preparations” (Grelan Pharmaceuticals Co., Ltd., priority 1998, dated 2001).

Conditions: oral tablets

- transfer of unchanged glycyrrhizin into blood (in words): hardly observed
Compound: CC1(C)[C@@H](O[C@H]2O[C@H](C(=O)O)[C@@H](O)[C@H](O)[C@H]2O[C@@H]2O[C@H](C(=O)O)[C@@H](O)[C@H](O)[C@H]2O)CC[C@]2(C)[C@H]3C(=O)C=C4[C@@H]5C[C@@](C)(C(=O)O)CC[C@]5(C)CC[C@@]4(C)[C@]3(C)CC[C@@H]12 [glycyrrhizin]
- decomposition of glycyrrhizin in the stomach (in words): quickly decomposed into glycyrrhetinic acid in the stomach
